Reference: patent publication US20240165226A1, “COMBINATION TREATMENT OF CD38-EXPRESSING TUMORS” (GENMAB A/S, priority 2006, published 2024)

Key:
[1] = test system: AMO-1 (a multiple myeloma cell line); experiment: ADCC set up II, AMO-1 cells; format: cell-based; details: CD38 expression is low
Description: Human blood from human volunteers (university Erlangen, Erlangen, Germany) was diluted twice in RPMI 1640 and blood cells were layered on Ficoll (Lymphocyte Separation Medium […], 710 g, RT, 20 min; BioWhittaker, Cambrex Bio Science Verviers, Verviers, Belgium, cat. 17-829E, lot no. 0148 32). Peripheral blood mononuclear cells (MNCs) were collected from the interphase, washed and resuspended in RPMI 1640 culture medium supplemented with 10% FCS, 2 mM L-glutamine, 5 U/ml penicillin, 50 μg/ml streptomycin (all derived from BioWhittaker) to which 25 mM HEPES (BioWhittaker) was added.
Target B-cells (fresh plasma cell leukemia tumor cells, JK6L and AMO-1 B-cell lines, obtained from Dr. T. Valerius, University of Erlangen, Erlangen, Germany) were labeled with 20 μCi ^51Cr (Amersham Biosciences, Uppsala, Sweden) for 2 hours. After extensive washing in RPMI-10, cells were adjusted to 1×10^5 cells/ml. […] After incubation (3 hr, 37° C.), assays were stopped by centrifugation, and 51Cr release from triplicates was measured in counts per minute (cpm) in a scintillation counter. Percentage of cellular cytotoxicity was calculated using the following formula: […]
with maximal ^51Cr release determined by adding perchloric acid (3% final concentration) to target cells, and basal release was measured in the absence of sensitizing antibodies and effector cells.

[2] = test system: plasma cells in implanted synovial tissue; experiment: RA-SCID mouse model, synovial tissue xenografts; format: in vivo, SCID-mice; details: 12 mg/kg i.v. day 8, day 14
From the text: SCID-mice, strain C.B.-17/lcrCrl-SCID-bg, male/female, 4-12 weeks, purchased from Charles River Laboratories Nederland (Maastricht, the Netherlands) were kept in IVC cages under standard conditions of temperature and light, and were fed laboratory chow and water ad libitum. Prior to implantation, mice (three mice in each experimental group, day 0) were anesthetized by intraperitoneal injection of ketamine (NIMATEK, EuroVet) and xylazine (Rompun, Bayer) at ratio 1:1. A small incision of the skin was made using surgical scissors. […] On day 1 of the experiment, remaining synovial tissue was analyzed in order to check for B cells in the inflamed synovial transplants. -005 (12 mg/kg) or control antibody (anti-KLH, 30 mg/kg) was injected (i.v.), in a volume of 200 μl on day 8 of the experiment. […]
Scoring of stained synovial tissue xenografts was performed in a blinded fashion by two trained persons. […] The staining intensity in the other sections was then scored on a scale of 0 to 8, relative to the reference section.
Scoring of staining intensity was analyzed by Kruskal-Wallis one-way ANOVA followed by Dunn's multiple comparison test using Graph Pad Prism version 4.01 (Graph Pad software, Inc., San Diego, CA, USA).

[3] = test system: EBV transformed chimpanzee B cells; experiment: Binding to EBV transformed chimpanzee B cells by flow cytometry; details: FITC-labeled antibody
Description: After harvesting and counting, EBV transformed chimpanzee B cells (received from Biomedical Primate Research Centre, Department Immunobiology, Rijswijk, The Netherlands) were resuspended (1×10^6 cells/ml) in PBS-BSA (PBS supplemented with 0.1% BSA and 0.02% Na-azide). Then, cells were put in 96-well V-bottom plates (100 μl/well) and washed twice in PBS-BSA. Thereafter, 50 μl FITC-labeled -005 antibody solution in PBS-BSA was added to the cells (4° C., 30 min). Cells were washed three times and specific binding of -005 to EBV transformed chimpanzee B cells was detected by flow cytometry. FITC labeled HuMab-KLH (a human monoclonal antibody against KLH (keyhole limpet haemocyanin) generated by Genmab B.V., Utrecht, The Netherlands by use of the immunization protocols described elsewhere herein) was used as a control.

Substance: -005: human monoclonal IgG1 anti-CD38 antibody, VL region SEQ ID No:12 and VH region SEQ ID No:17
- lysis of AMO-1 by ADCC [1]: lysis is induced
- numbers of anti-CD38-positive plasma cells in xenografts [2]: reduced
- numbers of plasma cells (anti-CD138 staining) in xenografts [2]: reduced numbers of plasma cells
- binding to EBV transformed chimpanzee B cells [3]: dose dependent binding
